Reference: patent US6838450B2, “Drug complex” (Daiichi Pharmaceutical Co., LTD, priority 1996, dated 2005)
Counter-ions that a name gives are not always drawn. Peptide text beside a SMILES is read from it.

What was measured:
[1] = test system: mouse fibrosarcoma Meth A cells; assay: Antitumor activity, Meth A tumor-bearing mice, single administration; format: in vivo
[2] = test system: mouse fibrosarcoma Meth A cells; assay: as above; format: in vivo; details: for antitumor activity (in words) / effective dose-range: single administration, compared to the drug compound, per se; for Inhibition rate (%): Table 3
Method: Meth A tumor-bearing mice (6 mice per group) were prepared according to a similar manner to that of Example 11 and the antitumor activity was compared to that obtained by single administration of the drug complexes of Examples 8 and 9 once on day 7. As a result, the degree of the antitumor activity was as follows: (Polysaccharide derivative)-Gly-Gly-Phe-Gly-NH—A′>(Polysaccharide derivative)-Gly-Gly-Gly-Phe-NH—A′>the drug compound, per se.
Meth A tumor-bearing mice (6 mice per group) were prepared according to a similar manner to that of Example 11, and the antitumor activity of the drug complex of Example 41 was examined in the cases of single administration in a similar manner to that of Example 12, and its antitumor activity was compared to that of the drug compound, per se. […]

[3] = test system: mouse fibrosarcoma Meth A cells; assay: Antitumor activity, Meth A tumor-bearing mice, injection every 4 days 4 times; details: for Inhibition rate (%): tail vein every 4 days from day 7, tumor weight day 21; for antitumor activity (in words): compared to the drug compound, per se
Method: Meth A tumor-bearing mice were prepared (7 mice per group) by subcutaneously transplanting 1×10^6 mouse fibrosarcoma Meth A cells into the right inguinal regions of BALB/c male mice (7-week old). On day 7, the drug complex of Example 9 dissolved in distilled water for injection was injected in the tail vein of the Meth A tumor-bearing mice every 4 days 4 times. On day 21 after the transplantation, tumor masses were excised and weighed to calculate the inhibition rate of tumor growth according to the following equation: inhibition rate of tumor growth (%)=[1−(average tumor weight of the group administered with the test sample/average tumor weight of control group)]×100.

Human lung cancer QG-90 = assay: Antitumor activity, human lung cancer QG-90-bearing nude mice; format: in vivo, mouse; details: for Inhibition rate (%) / Numbers of died mice/mice used: single intravenous administration on day 16, nude mice
Method: (§1) SC-6 tumor-bearing nude mice (5 mice per group) were prepared by subcutaneously transplanting a piece of SC-6 human gastric tumor block into the right inguinal regions of nude mice (BALB/c-nu/nu, male).
Human lung cancer QG-90-bearing nude mice (5 mice per group) were prepared according to a similar manner to that of Example 57.

SC-6 human gastric tumor = assay: Antitumor activity, SC-6 tumor-bearing nude mice; format: in vivo, mouse; details: for Inhibition rate (%) / Numbers of died mice/mice used: single intravenous administration on day 27, nude mice
Method: as §1

[4] = Pharmacokinetics in Meth A tumor-bearing mice; format: in vivo, mouse; details: single administration, 10 mg/kg calculated as the drug compound; FIG. 24
[5] = Example 60, 20 mg/kg calculated based on the drug compound, single administration, 20 mg/kg
[6] = Example 60, 40 mg/kg calculated based on the drug compound, single administration
[7] = Example 60, 80 mg/kg calculated based on the drug compound, single administration
[8] = Example 60, 100 mg/kg calculated based on the drug compound, single administration
[9] = 5 mg/kg calculated based on the drug compound, single administration on day 7
[10] = 1.75 mg/kg calculated based on the drug compound
[11] = 7 mg/kg calculated based on the drug compound
[12] = single intravenous administration, compared to the drug compound, per se
[13] = 2 mg/kg calculated based on the drug compound
[14] = 8 mg/kg calculated based on the drug compound

carboxymethyldextran polyalcohol-Gly-Gly-Gly-Phe-NH—A′ (A—NH2=DX-8951) [Example 46]
Inhibition rate (%) [1, 5]: 75% | Inhibition rate (%) [1, 6]: 82% | Inhibition rate (%) [1, 7]: 92% | Inhibition rate (%) [1, 8]: 94% | antitumor activity (in words) [2]: high | effective dose-range [2]: broader

carboxymethyldextran polyalcohol-Gly-Gly-Phe-Gly-DXR [Example 44]
Inhibition rate (%) ([1]; Example 61, 5 mg/kg calculated based on the drug compound, single administration): 76% | Inhibition rate (%) ([1]; Example 61, 10 mg/kg calculated based on the drug compound, single administration): 87% | Inhibition rate (%) ([1]; Example 61, 20 mg/kg calculated based on the drug compound, single administration): 96% | Inhibition rate (%) ([1]; Example 61, 40 mg/kg calculated based on the drug compound, single administration): 96% | antitumor activity (in words) [2]: remarkably enhanced | effective dose-range [2]: broader

carboxymethyldextran polyalcohol-Gly-Gly-Gly-Phe-NH—A′ (A—NH2=DX-8951) [Example 29]
Inhibition rate (%) ([1]; Example 60, 5 mg/kg calculated based on the drug compound, single administration): 79% | Inhibition rate (%) ([1]; Example 60, 10 mg/kg calculated based on the drug compound, single administration): 89% | Inhibition rate (%) [1, 5]: 99% | Inhibition rate (%) ([1]; Example 60, 30 mg/kg calculated based on the drug compound, single administration): 99% | antitumor activity (in words) [2]: high | effective dose-range [2]: broader

α-methylcarboxymethyldextran polyalcohol-Gly-Gly-Gly-Phe-NH—A′ (A—NH2=DX-8951) [Example 47]
Inhibition rate (%) ([1]; Example 60, 20 mg/kg calculated based on the drug compound, single administration): 75% | Inhibition rate (%) [1, 6]: 97% | Inhibition rate (%) [1, 7]: 94% | Inhibition rate (%) [1, 8]: 96% | antitumor activity (in words) [2]: high | effective dose-range [2]: broader

carboxymethyldextran polyalcohol-Gly-Gly-Phe-Gly-NH—A′ (A—NH2=DX-8951) [Example 9]
Inhibition rate (%) ([1]; Table 3, 2.5 mg/kg calculated based on the drug compound, single administration on day 7): 87% | Inhibition rate (%) ([3]; dose 0.35 mg/kg × 4 calculated based on the drug compound): 41% | Inhibition rate (%) ([3]; dose 0.7 mg/kg × 4 calculated based on the drug compound): 59% | Inhibition rate (%) ([3]; dose 1.4 mg/kg × 4 calculated based on the drug compound): 94% | toxicity (weight loss) ([3]; every 4 days 4 times): no toxicity | antitumor activity (in words) ([3]; every 4 days 4 times): remarkably enhanced | Inhibition rate (%) [2, 9]: 98%

CC[C@@]1(O)C(=O)OCc2c1cc1n(c2=O)Cc2c-1nc1cc(F)c(C)c3c1c2[C@@H](NC(=O)CNC(=O)[C@H](Cc1ccccc1)NC(=O)CNC(=O)CN)CC3 [3′-N-(Gly-Gly-Phe-Gly)-NH—A (A—NH2=DX-8951) trifluoroacetic acid salt] (HELM PEPTIDE1{G.G.F.G.[CC[C@@]1(O)C(=O)OCc2c1cc1n(c2=O)Cc2c-1nc1cc(F)c(C)c3c1c2[C@@H](N[*:1])CC3]}$$$$V2.0)
antitumor activity (in words) ([3]; every 4 days 4 times): not effective

carboxymethyldextran polyalcohol-Gly-Gly-Phe-Gly-NH—A′ (A—NH2=DW-8089) [Example 41]
Inhibition rate (%) ([1]; Example 59, 3.125 mg/kg calculated based on the drug compound, single administration): 61% | Inhibition rate (%) ([1]; Example 59, 6.25 mg/kg calculated based on the drug compound, single administration): 81% | Inhibition rate (%) ([1]; Example 59, 12.5 mg/kg calculated based on the drug compound, single administration): 95% | Inhibition rate (%) ([1]; Example 59, 25 mg/kg calculated based on the drug compound, single administration): 99% | antitumor activity (in words) [2]: remarkably enhanced | effective dose-range [2]: broader

carboxymethyldextran polyalcohol-Gly-Gly-Gly-Phe-NH—A′ (A—NH2=DX-8951) [Example 8]
Inhibition rate (%) [2, 9]: 76% | Inhibition rate (%) ([2]; 10 mg/kg calculated based on the drug compound, single administration on day 7): 85%

carboxymethyldextran polyalcohol-Gly-Gly-Phe-Gly-NH—A′ (A—NH2=DX-8951) [Example 15]
Inhibition rate (%) ([1]; Example 56, 1.25 mg/kg calculated based on the drug compound, single administration): 83% | Inhibition rate (%) ([1]; Example 56, 2.5 mg/kg calculated based on the drug compound, single administration): 95% | Inhibition rate (%) ([1]; Example 56, 5 mg/kg calculated based on the drug compound, single administration): 99% | Inhibition rate (%) ([1]; Example 56, 10 mg/kg calculated based on the drug compound, single administration): 100% | antitumor activity (in words) [2]: remarkably enhanced | effective dose-range [2]: broader | Inhibition rate (%) (Human lung cancer QG-90; [10]): 97% | Numbers of died mice/mice used (Human lung cancer QG-90; [10]): 0/5 | Inhibition rate (%) (Human lung cancer QG-90; [11]): 98% | Numbers of died mice/mice used (Human lung cancer QG-90; [11]): 0/5 | antitumor activity (in words) (Human lung cancer QG-90; [12]): remarkably enhanced | effective dose-range (Human lung cancer QG-90; [12]): broader | Inhibition rate (%) (SC-6 human gastric tumor; [13]): 71% | Numbers of died mice/mice used (SC-6 human gastric tumor; [13]): 0/5 | Inhibition rate (%) (SC-6 human gastric tumor; [14]): 100% | Numbers of died mice/mice used (SC-6 human gastric tumor; [14]): 0/5 | death due to toxicity (SC-6 human gastric tumor; single intravenous administration): no death | antitumor activity (in words) (SC-6 human gastric tumor; [12]): higher | distribution in tumor tissues [4]: high | retention of blood level [4]: extremely long

CC[C@@]1(O)C(=O)OCc2c1cc1n(c2=O)Cc2c-1nc1cc(F)c(C)c3c1c2[C@@H](N)CC3 [DX-8951, (1S,9S)-1-amino-9-ethyl-5-fluoro-2,3-dihydro-9-hydroxy-4-methyl-1H,12H-benzo[de]pyrano[3′,4′:6,7]indolizino[1,2-b]quinoline-10,13(9H,15H)-dione, reference compound]
Inhibition rate (%) ([2]; 20 mg/kg single administration on day 7, drug compound = DX-8951): 59% | Inhibition rate (%) ([2]; 60 mg/kg single administration on day 7, drug compound = DX-8951): 77%
